Assay results taken from patent US9469650B2, “Melampomagnolide B derivatives” (BOARD OF TRUSTEES OF THE UNIVERSITY OF ARKANSAS, priority 2013, dated 2016).
Where two headings read alike, the source gives them in different places.

Key:
[1] = system: NCI-H460; test: panel of 60 human tumor cell lines, growth inhibition (Non-Small Cell Lung Cancer); conditions: Homo sapiens; for GI50: NCI-H460; for CC50: NCI-H460, read-out: LC50; for IC (TGI): NCI-H460, read-out: TGI
[2] = system: NCI-H226; test: as above; conditions: Homo sapiens; for GI50: NCI-H226; for CC50: NCI-H226, read-out: LC50; for IC (TGI): NCI-H226, read-out: TGI
[3] = system: MCF7; test: panel of 60 human tumor cell lines, growth inhibition (Breast Cancer); conditions: Homo sapiens; for GI50: MCF7, MCF7; for CC50: MCF7, read-out: LC50; for IC (TGI): MCF7, read-out: TGI
[4] = system: HOP-62; test: panel of 60 human tumor cell lines, growth inhibition (Non-Small Cell Lung Cancer); conditions: Homo sapiens; for GI50: HOP-62; for CC50: HOP-62, read-out: LC50; for IC (TGI): HOP-62, read-out: TGI
[5] = system: SN12C; test: panel of 60 human tumor cell lines, growth inhibition (Renal Cancer); conditions: Homo sapiens; for CC50: read-out: LC50; for IC (TGI): read-out: TGI
[6] = system: SK-MEL-2; test: panel of 60 human tumor cell lines, growth inhibition (Melanoma); conditions: Homo sapiens; for GI50: SK-MEL-2; for CC50: SK-MEL-2, read-out: LC50; for IC (TGI): SK-MEL-2, read-out: TGI
[7] = system: HCC-2998; test: panel of 60 human tumor cell lines, growth inhibition (Colon Cancer); conditions: Homo sapiens; for GI50: HCC 2998; for CC50: HCC 2998, read-out: LC50; for IC (TGI): HCC 2998, read-out: TGI
[8] = system: HL-60(TB)
[9] = system: HOP-92; test: panel of 60 human tumor cell lines, growth inhibition (Non-Small Cell Lung Cancer); conditions: Homo sapiens; for CC50: HOP-92, read-out: LC50; for IC (TGI): HOP-92, read-out: TGI
[10] = system: CAKI-1; test: panel of 60 human tumor cell lines, growth inhibition (Renal Cancer); conditions: Homo sapiens; for GI50: CAKI-1; for CC50: CAKI-1, read-out: LC50; for IC (TGI): CAKI-1, read-out: TGI
[11] = system: SK-MEL-5; test: panel of 60 human tumor cell lines, growth inhibition (Melanoma); conditions: Homo sapiens; for GI50: SK-MEL-5; for CC50: SK-MEL-5, read-out: LC50; for IC (TGI): SK-MEL-5, read-out: TGI
[12] = system: DU-145; test: panel of 60 human tumor cell lines, growth inhibition (Prostate Cancer); conditions: Homo sapiens; for GI50: DU-145; for CC50: DU-145, read-out: LC50; for IC (TGI): DU-145, read-out: TGI
[13] = system: SK-OV-3; test: panel of 60 human tumor cell lines, growth inhibition (Ovarian Cancer); conditions: Homo sapiens; for GI50: SK-OV-3; for CC50: SK-OV-3, read-out: LC50; for IC (TGI): SK-OV-3, read-out: TGI
[14] = system: HCT-15; test: panel of 60 human tumor cell lines, growth inhibition (Colon Cancer); conditions: Homo sapiens; for GI50: HCT-15; for CC50: HCT-15, read-out: LC50; for IC (TGI): HCT-15, read-out: TGI
[15] = system: RXF 393; test: panel of 60 human tumor cell lines, growth inhibition (Renal Cancer); conditions: Homo sapiens; for CC50: RXF 393, read-out: LC50; for IC (TGI): RXF 393, read-out: TGI
[16] = system: MDA-MB-231/ATCC; test: panel of 60 human tumor cell lines, growth inhibition (Breast Cancer); conditions: Homo sapiens; for GI50: MDA-MB-231; for CC50: MDA-MB-231, read-out: LC50; for IC (TGI): MDA-MB-231, read-out: TGI
[17] = system: CCRF-CEM; test: panel of 60 human tumor cell lines, growth inhibition (Leukemia); conditions: Homo sapiens; for CC50: read-out: LC50; for IC (TGI): read-out: TGI
[18] = system: LOX IMVI; test: panel of 60 human tumor cell lines, growth inhibition (Melanoma); conditions: Homo sapiens; for CC50: read-out: LC50; for IC (TGI): read-out: TGI
[19] = system: MOLT-4; test: panel of 60 human tumor cell lines, growth inhibition (Leukemia); conditions: Homo sapiens; for GI50: MOLT-4; for CC50: MOLT-4, read-out: LC50; for IC (TGI): MOLT-4, read-out: TGI

C=C1C(=O)O[C@H]2[C@H]1CC/C(COC(=O)NCCN1CCOCC1)=C\CC[C@@]1(C)O[C@@H]21 [JVM 57, ((1aR,7aS,10aS,10bS,E)-1a-methyl-8-methylene-9-oxo-1a,2,3,6,7,7a,8,9,10a,10b-decahydrooxireno[2′,3′:9,10]-cyclodeca[1,2-b]furan-5-yl)-methyl(2-morpholinoethyl)carbamate]
GI50 [1]: 27.1 µM
CC50 [1]: > 100 µM
IC (TGI) [1]: 87.3 µM
GI50 [2]: 42.7 µM
CC50 [2]: > 100 µM
IC (TGI) [2]: > 100 µM
GI50 [3]: 3.54 µM
GI50 ([3]; 5-dose assay): 3.54 µM
CC50 [3]: 53.1 µM
IC (TGI) [3]: 14.4 µM
GI50 [4]: 27.4 µM
CC50 [4]: > 100 µM
IC (TGI) [4]: 53 µM
GI50 [5]: 18.8 µM
CC50 [5]: > 100 µM
IC (TGI) [5]: 55.2 µM
GI50 [6]: 13.2 µM
CC50 [6]: 65.5 µM
IC (TGI) [6]: 29.4 µM
GI50 [7]: 19.7 µM
CC50 [7]: 72.3 µM
IC (TGI) [7]: 37.7 µM
Percent Growth ([8]; Log10 Concentration −4.0): −55%
Percent Growth ([8]; Log10 Concentration −5.0): 14%
Percent Growth ([8]; Log10 Concentration −6.0): 95%
Percent Growth ([8]; Log10 Concentration −7.0): 101%
Percent Growth ([8]; Log10 Concentration −8.0): 100%
GI50 ([9]; HOP-92, HOP-92): 2.3 µM
GI50 ([9]; HOP-92, HOP-92, 5-dose assay): 2.3 µM
CC50 [9]: 33.7 µM
IC (TGI) [9]: 8.61 µM
GI50 [10]: 4.31 µM
CC50 [10]: 52.7 µM
IC (TGI) [10]: 17.7 µM
GI50 [11]: 12.7 µM
CC50 [11]: 50.9 µM
IC (TGI) [11]: 25.4 µM
GI50 [12]: 3.74 µM
CC50 [12]: 37 µM
IC (TGI) [12]: 13.3 µM
GI50 [13]: 48.5 µM
CC50 [13]: > 100 µM
IC (TGI) [13]: > 100 µM
GI50 [14]: 10.5 µM
CC50 [14]: > 100 µM
IC (TGI) [14]: 34.4 µM
GI50 ([15]; RXF 393, RXF 393): 3 µM
GI50 ([15]; RXF 393, RXF 393, 5-dose assay): 3 µM
CC50 [15]: 41 µM
IC (TGI) [15]: 11.9 µM
GI50 [16]: 13.7 µM
CC50 [16]: 64.3 µM
IC (TGI) [16]: 29.7 µM
GI50 [17]: 3.03 µM
GI50 ([17]; 5-dose assay): 3.03 µM
CC50 [17]: ≥ 109 µM
IC (TGI) [17]: 11.6 µM
GI50 [18]: 4.84 µM
GI50 ([18]; 5-dose assay): 4.84 µM
CC50 [18]: 47 µM
IC (TGI) [18]: 17.5 µM
GI50 [19]: 5 µM
CC50 [19]: > 100 µM
IC (TGI) [19]: 22.9 µM

C=C1C(=O)O[C@H]2[C@H]1CC/C(COC(=O)Nc1n[nH]c(SC)n1)=C\CC[C@@]1(C)O[C@@H]21 [JVM 64, ((1aR,7aS,10aS,10bS,E)-1a-methyl-8-methylene-9-oxo-1a,2,3,6,7,7a,8,9,10a,10b-decahydrooxireno[2′,3′:9,10]cyclodeca[1,2-b]furan-5-yl)methyl-(5-(methylthio)-1H-1,2,4-triazol-3-yl)carbamate]
GI50 [1]: 4.03 µM
CC50 [1]: > 100 µM
IC (TGI) [1]: 18.9 µM
GI50 [2]: 10.2 µM
CC50 [2]: 99.7 µM
IC (TGI) [2]: 31.9 µM
GI50 ([3]; 5-dose assay): 1.33 µM
GI50 ([3]; NCI five dose): 1.33 µM
CC50 [3]: 70.2 µM
IC (TGI) [3]: 10.5 µM
GI50 [4]: 6.45 µM
CC50 [4]: 64.9 µM
IC (TGI) [4]: 22.3 µM
GI50 [5]: 2.9 µM
CC50 [5]: 44.6 µM
IC (TGI) [5]: 10.7 µM
GI50 [6]: 3.56 µM
CC50 [6]: 62.2 µM
IC (TGI) [6]: 13.1 µM
GI50 [7]: 7.63 µM
CC50 [7]: 52.7 µM
IC (TGI) [7]: 21.5 µM
GI50 ([9]; HOP-92, HOP-92, 5-dose assay): 0.65 µM
GI50 ([9]; HOP-92, HOP-92, NCI five dose): 0.655 µM
GI50 ([9]; HOP-92, non-small cell lung cancer cell line HOP-92): 0.65 µM
CC50 [9]: 20.4 µM
IC (TGI) [9]: 3.84 µM
GI50 [10]: 1.99 µM
CC50 [10]: 36.6 µM
IC (TGI) [10]: 6.93 µM
GI50 [11]: 3.13 µM
CC50 [11]: 37.5 µM
IC (TGI) [11]: 12.4 µM
GI50 [12]: 3.49 µM
CC50 [12]: 38.4 µM
IC (TGI) [12]: 13.1 µM
GI50 [13]: 11.7 µM
CC50 [13]: > 100 µM
IC (TGI) [13]: 35.8 µM
GI50 [14]: 2.4 µM
CC50 [14]: 38 µM
IC (TGI) [14]: 9.05 µM
GI50 ([15]; RXF 393, RXF 393, 5-dose assay): 0.9 µM
GI50 ([15]; RXF 393, RXF 393, NCI five dose): 0.906 µM
CC50 [15]: 6.02 µM
IC (TGI) [15]: 2.41 µM
GI50 ([15]; RXF 393, renal cancer cell line RXF 393): 0.9 µM
GI50 [16]: 2.93 µM
CC50 [16]: 37.7 µM
IC (TGI) [16]: 9.22 µM
GI50 ([17]; 5-dose assay): 0.62 µM
GI50 ([17]; NCI five dose): 0.626 µM
GI50 ([17]; leukemia cell line CCRF-CEM): 0.62 µM
CC50 [17]: 55.8 µM
IC (TGI) [17]: 3.56 µM
GI50 ([18]; 5-dose assay): 1.95 µM
GI50 ([18]; NCI five dose): 1.95 µM
CC50 [18]: 19.8 µM
IC (TGI) [18]: 5.03 µM
GI50 [19]: 2.32 µM
CC50 [19]: 88.5 µM
IC (TGI) [19]: 6.59 µM
